Results on one compound are retold here after patent US4973675A, “Hybrid nitrosoureidoanthracyclines having antitumor activity” (University of Tennessee Research Center, priority 1989, dated 1990).

For assay [1], the system named is murine P388/adriamycin-resistant leukemia. The conditions noted are these: Johnson et al. (1976); cited from earlier work.
The subject of the next assay is murine L1210 lymphocytes. As to the kind of experiment: DNA alkaline elution filter assay, DNA damage in murine L1210 lymphocytes. In kind it is cell-based. An excerpt: (§1) By means of the DNA alkaline elution filter assay technique, it is possible to assess the nature of damage induced in DNA by exposure to drugs and other agents. Depending on the assay conditions, DNA lesions can be quantified as direct strand breaks, DNA-DNA interstrand crosslinks, and protein-associated strand breaks and crosslinks. The action of akylating-type drugs on DNA typically results in a predominant formation of direct DNA single-strand breaks and DNA-DNA crosslinks. DNA intercalating agents show a preponderance of protein-associated DNA damage, detectable as protein-associated single-strand breaks and DNA-protein crosslinks.
(§2) The nature of nitrosoureidoanthracycline-induced DNA damage in murine L1210 and human CLL lymphocytes was assessed by means of the alkaline elution filter technique. Murine L1210 leukemic lymphocytes, like P388/S lymphocytes, are known to contain high levels of topoisomerase II.
(§3) *All concentrations 1 μM, 1hr incubation. Each entry represents the
(§4) mean of at least two experiments, frequency per 10^6 nucleotides;
(§5) statistically significant increase above background underlined. DB, direc
(§6) (nonenzymatic) DNA breaks; PAB, proteinassociated DNA cleavage; DDCL,
(§7) interstrand DNA crosslinks; DPCL, DNAprotein crosslinks.

The subject of another assay is murine P388 leukemia. The conditions noted are these: optimal dose 3.0 mg/kg, this protocol; cited from earlier work.
The test system of assay [2] is murine L1210 leukemia cells. As to the kind of experiment: Clonogenic assay with cultured murine L1210 leukemia cells, 1 h drug exposure (LD90). It counts as cell-based. As to conditions: Mus musculus, L1210; 1 hr drug exposure; read-out: L1210 LD90 (dose killing 90% of clonogens). As to the method: (§8) Culture and bioassay conditions were as described in Cancer Chemotherapy Pharmacology 20:277 (1987) "Comparative Effects of Adriamycin and DNA-nonbinding Analogues on DNA, RNA, and Protein Synthesis in Vitro", Israel et al., except that cell counts were determined by hemocytometer rather than by automated cell counting.
+Dose killing 90% of clonogens, 1hr. drug exposure.

Assay [3] relates to murine P388/adriamycin-resistant leukemia. Put plainly: In vivo antitumor activity vs. murine P388/adriamycin-resistant leukemia (P388/ADR). As to conditions: P388/ADR in vivo, lack of response confirmed.
Excerpt: Assays were run essentially according to the established protocols of the U.S. National Cancer Institute (Geran et al., 1972 "Protocols for Screening Chemical Agents and Natural Products Against Animal Tumors and Other Biological Systems" (3rd Ed.), Cancer Chemotherapy Rep. [3]33, 1-103.), with the test agent given at 3-5 incremental dose levels in each screening experiment and with median survival of treated groups referenced against data for untreated controls.
*B6D2F1 males; 1 × 10^6 tumor cell inoculum ip day 0; treatment
For assay [4], the system named is human CEM leukemic lymphocytes. As to the kind of experiment: Growth inhibition of human CEM leukemic lymphocyte suspension cultures, 48 h continuous drug exposure (ID50). It counts as cell-based. As to conditions: Homo sapiens, Lymphocyte; suspension culture, 48 hr continuous drug exposure (Table 3); read-out: CEM, ID50 (50% growth-inhibitory concentration). The method, then:
as §8

Assay [5] has as its system plasmid PC15 supercoiled DNA. As to the kind of experiment: DNA unwinding assay (interference with DNA topoisomerase I-mediated unwinding; drug-DNA intercalation). In kind it is biochemical.
The next assay has as its system DNA topoisomerase II. As to the kind of experiment: Drug-stimulated topoisomerase II-mediated DNA cleavage assay (end-labeled PMC41 DNA). It counts as biochemical. The text has this: FIGS. 5A and 5B are a photographic reproduction of the results of drug-stimulated topoisomerase II-mediated DNA cleavage assays performed on various compounds, including compounds of the present invention.
DNA intercalation is a necessary but not a sufficient requirement for DNA topoisomerase II-mediated DNA cleavage. Accordingly, determination of drug-induced enzyme inhibition requires direct assay with isolated topoisomerase II. These assays involve determination of drug-enhanced topoisomerase II-mediated cleavage of PMC41 DNA appropriately end-labeled with [α-^32 P]dATP. As better seen in FIG. 5B, lane B, purified topoisomerase II, under the assay conditions, causes fragmentation of the DNA (background cleavage), as indicated by the radioautographic appearance of bands of cleaved DNA having differing mass values.

Another assay has as its system human CLL lymphocytes. Put plainly: DNA alkaline elution filter assay, DNA damage in human CLL lymphocytes. In kind it is cell-based.
Excerpt: as §1, §2, §3, §4, §5, §6, §7
B-cell type lymphocytes freshly obtained from patients with chronic lymphocytic leukemia (CLL) show undetectable levels of topoisomerase II.

Setting [6] is: L1210, 1 μM, 1 hr incubation, 0 hr after treatment.
[7] abbreviates: CLL, 1 μM, 1 hr incubation, 0 hr after treatment.

Molecules are shown by their SMILES. “And” between values parts separate entries of the source, which are not always exact repeats. Equal values may be shown once. “Also recorded” adds a separate entry of the source.

With `COc1cccc2c1C(=O)c1c(O)c3c(c(O)c1C2=O)C[C@@](O)(C(=O)CO)C[C@@H]3O[C@H]1C[C@H](N)[C@H](O)[C@H](C)O1` [Adriamycin, adriamycin, reference compound], the “in vivo sensitivity of P388/ADR” value in [1] is given as “insensitive to adriamycin in vivo”. The “pattern of DNA damage” value in the assay with murine L1210 lymphocytes (L1210) is “significant amounts of protein-associated single-strand breaks, without producing much in the way of direct strand breaks and DNA-DNA interstrand cross-links”. Moreover, in the assay with murine L1210 lymphocytes (setting [6]), the “DB, direct (nonenzymatic) DNA breaks” value is reported as -0.1 frequency per 10^6 nucleotides and the “DD-CL, interstrand DNA crosslinks” value is given as 0.1 frequency per 10^6 nucleotides. Moreover, the “longterm survivors, historical results” value in the assay with murine P388 leukemia is “infrequent longterm survivors”. The IC90 in assay [2] was determined as 310 nM. For the same compound, the “increase in life span” value in assay [3] is recorded as 0%. For the same compound, the IC50 in assay [4] was 55 nM. In [5] (0 = no intercalation, 9 = very strong intercalation), the “relative strength of drug-DNA intercalation (arbitrary scale)” value came to 7. Besides, in assay [5] (4 concentrations, 125-fold range), the “interference with topoisomerase I-mediated conversion of supercoiled DNA / intercalation” value is listed as “concentration-dependent ability to interfere with the conversion of supercoiled DNA to relaxed forms; also recorded: ability of increasing concentrations of adriamycin (positive control) to interfere with the conversion of supercoiled DNA to relaxed forms”. Also, the “enhancement of topoisomerase II-mediated DNA cleavage” value in the assay with DNA topoisomerase II (625-fold concentration range) is recorded as “at low concentrations adriamycin enhances DNA fragmentation”. In the assay on DNA topoisomerase II (and higher), the “concentration at which background cleavage is eliminated” value is ≥ 4.6 μM and ≥ 2.5 μg/ml. The “pattern of DNA damage” value with human CLL lymphocytes (CLL B-cell lymphocytes) is given as “cannot be detected in these cells to any significant level”. In the assay on human CLL lymphocytes (setting [7]), the “DB, direct (nonenzymatic) DNA breaks” value was 0.1 frequency per 10^6 nucleotides; the “DD-CL, interstrand DNA crosslinks” value is reported as 0.0 frequency per 10^6 nucleotides; the “DP-CL, DNA-protein crosslinks” value was 0.1 frequency per 10^6 nucleotides; the “PAB, protein-associated DNA cleavage” value is 0.1 frequency per 10^6 nucleotides.
